Laboratory results taken from patent publication US6448442B1, “Contrast media” (Amersham Health AS, priority 1999, dated 2002).

Assay: Viscosity in aqueous solution at 20° C. (Example 82, Tables 1 and 2)
Format: physicochemical
Conditions: for Viscosity at 400 mgI/ml (CALCULATED): calculated for 400 mgI/ml; for Viscosity 350 mgI/ml (CALCULATED): calculated for 350 mgI/ml
Procedure: The viscosities in aqueous solution at 20° C. for some further compounds described above were determined and are listed in Table 2. […]

[1] = iodine concentration 370 mgI/mL

Viscosity at 400 mgI/ml (CALCULATED) | Viscosity 350 mgI/ml (CALCULATED) | SMILES | other results
11.0 mPas | – | CC(O)C(=O)Nc1c(I)c(CO)c(I)c(NC(=O)C(C)O)c1I (stereo not drawn) [Example 8, N,N′-Bis(2-hydroxypropionyl)-3,5-diamino-2,4,6-triiodobenzylalcohol] | Viscosity 20° C. (concentration 370 mgI/ml): 8.3 mPas; Viscosity [1]: 8.3 mPas
10.8 mPas | – | CN(CC(O)CO)C(=O)c1c(I)c(CCO)c(I)c(NC(=O)CO)c1I (stereo not drawn) [Example 44, 5-Hydroxyacetamido-3-hydroxyethyl-N-methyl-N-(2,3-dihydroxy-propyl)-2,4,6-triiodobenzamide] | Viscosity 20° C. (concentration 481 mgI/ml): 24 mPas
13.0 mPas | 8.3 mPas | O=C(Nc1c(I)c(CC(O)CO)c(I)c(NC(=O)C(O)CO)c1I)C(O)CO (stereo not drawn) [Example 64, 3,5-Bis-(2,3-dihydroxypropionylamino)-2,4,6-triiodo-(2,3-dihydroxy-propyl)-benzene] | Viscosity 20° C. (concentration 419 mgI/ml): 16 mPas
22.9 mPas | – | O=C(NCC(O)CO)c1c(I)c(CO)c(I)c(NC(=O)C(CO)(CO)CO)c1I (stereo not drawn) [Example 33, 5-(3-Hydroxy-2,2-dihydroxymethyl-propionylamino)-3-hydroxymethyl-N-(2,3-dihydroxypropyl)-2,46-triiodobenzamide] | Viscosity 20° C. (concentration 370 mgI/ml): 16 mPas; Viscosity [1]: 16 mPas
15.8 mPas | 9.3 mPas | O=C(CO)Nc1c(I)c(CC(O)CO)c(I)c(N(CC(O)CO)C(=O)CO)c1I (stereo not drawn) [Example 74, 5-Hydroxyacetamido-3-[N-(2,3-dihydroxypropyl)-hydroxyacetamido]-2,4,6-triiodo-(2,3-dihydroxypropyl)benzene] | Viscosity 20° C. (concentration 399 mgI/ml): 16 mPas
15 mPas | – | CC(O)C(=O)Nc1c(I)c(CO)c(I)c(N(CC(O)CO)C(=O)C(C)O)c1I (stereo not drawn) [Example 11, N,N′-Bis(2-hydroxypropionyl)-N-(2,3-dihydroxypropyl)-3,5-diamino-2,4,6-triiodobenzylalcohol] | Viscosity 20° C. (concentration 409 mgI/ml): 17 mPas; Viscosity (iodine concentration 407 mgI/mL): 16 mPas
8.8 mPas | 6.0 mPas | O=C(CO)Nc1c(I)c(CC(O)CO)c(I)c(NC(=O)CO)c1I (stereo not drawn) [Example 71, 3,5-Bis-(Hydroxyacetamido)-2,4,6-triiodo-(2,3-dihydroxypropyl)benzene] | Viscosity 20° C. (concentration 455 mgI/ml): 14 mPas
17.0 mPas | – | CC(O)C(=O)Nc1c(I)c(CO)c(I)c(C(=O)N(CC(O)CO)CC(O)CO)c1I (stereo not drawn) [Example 69, 5-(2-Hydroxypropionylamino)-3-hydroxymethyl-N,N-bis-(2,3-dihydroxypropyl)-2,4,6-triiodobenzamide] | Viscosity 20° C. (concentration 417 mgI/ml): 21 mPas
16.2 mPas | – | O=C(CO)Nc1c(I)c(CO)c(I)c(C(=O)N(CC(O)CO)CC(O)CO)c1I (stereo not drawn) [Example 67, 5-(hydroxyacetamido)-3-hydroxymethyl-N,N-bis-(2,3-dihydroxy-propyl)-2,4,6-triiodobenzamide] | Viscosity 20° C. (concentration 407 mgI/ml): 18 mPas
11.0 mPas | 7.2 mPas | O=C(CO)Nc1c(I)c(CC(O)CO)c(I)c(N(CCO)C(=O)CO)c1I (stereo not drawn) [Example 72, 5-Hydroxyacetamido-3-[N-(2-hydroxyethyl)-hydroxyacetamido]-2,4,6-triiodo-(2,3-dihydroxypropyl)benzene] | Viscosity 20° C. (concentration 432 mgI/ml): 15 mPas
12.2 mPas | – | O=C(Nc1c(I)c(CO)c(I)c(N(CCO)C(=O)C(O)CO)c1I)C(O)CO (stereo not drawn) [Example 13, N,N′-Bis(2,3-dihydroxypropionyl)-N-(2-hydroxyethyl)-3,5-diamino-2,4,6-triiodobenzylalcohol] | Viscosity 20° C. (concentration 398 mgI/ml): 12 mPas; Viscosity (iodine concentration 398 mgI/mL): 12 mPas
9.8 mPas | – | O=C(NCCO)c1c(I)c(CO)c(I)c(NC(=O)C(O)CO)c1I (stereo not drawn) [Example 52, 5-(2,3-Dihydroxypropionylamino)-3-hydroxymethyl-N-(2-hydroxyethyl)-2,4,6-triiodobenzamide] | Viscosity 20° C. (concentration 514 mgI/ml): 29 mPas
14.6 mPas | 9.2 mPas | CC(O)C(=O)N(CCO)c1c(I)c(CO)c(I)c(C(=O)NCC(O)CO)c1I (stereo not drawn) [Example 28, 5-[N′-(2-Hydroxyethyl)-2-hydroxypropionylamino]-3-hydroxymethyl-N-(2,3-dihydroxypropyl)-2,4,6-triiodobenzamide] | Viscosity 20° C. (concentration 404 mgI/ml): 15 mPas; Viscosity (iodine concentration 404 mgI/mL): 15 mPas
11.5 mPas | – | O=C(CO)Nc1c(I)c(CO)c(I)c(N(CC(O)CO)C(=O)CO)c1I (stereo not drawn) [Example 7, N,N′-Bis(hydroxyacetyl)-N-(2,3-dihydroxypropyl)-3,5-diamino-2,4,6-triiodobenzylalcohol] | Viscosity 20° C. (concentration 361 mgI/ml): 8 mPas; Viscosity (iodine concentration 361 mgI/mL): 8.0 mPas

Second part, the molecule before the results:

SMILES | Viscosity at 400 mgI/ml (CALCULATED) | Viscosity 350 mgI/ml (CALCULATED) | other results
O=C(c1c(I)c(CO)c(I)c(N2CCCC(O)C2=O)c1I)N(CC(O)CO)CC(O)CO (stereo not drawn) [Example 70, 5-(3-Hydroxy-2-oxo-1-piperidinyl)-3-hydroxymethyl-N,N-bis-(2,3-dihydroxypropyl)-2,4,6-triiodobenzamide] | 27.8 mPas | – | Viscosity 20° C. (concentration 361 mgI/ml): 16 mPas
O=C(NC(CO)C(O)CO)c1c(I)c(CO)c(I)c(N(CC(O)CO)C(=O)CO)c1I (stereo not drawn) [Example 36, 5-[N′-(2,3-Dihydroxypropyl)-hydroxyacetamido]-3-hydroxymethyl-N-(1,3 4-trihydroxybut-2-yl)-2,4.6-triiodobenzamide] | 17.7 mPas | 10.6 mPas | Viscosity 20° C. (concentration 382 mgI/ml): 15 mPas; Viscosity (iodine concentration 382 mgI/mL): 15 mPas
O=C(NCC(O)CO)c1c(I)c(CO)c(I)c(N(CCO)C(=O)C(O)CO)c1I (stereo not drawn) [Example 30, 5-[N′-(2-Hydroxyethyl)-2,3-dihyroxypropionylamino]-3-hydroxymethyl-N-(2,3-dihydroxypropyl)-2,4,6-triiodobenzamide] | 23.3 mPas | 13.4 mPas | Viscosity 20° C. (concentration 391 mgI/ml): 21 mPas; Viscosity (iodine concentration 391 mgI/mL): 21 mPas
O=C(C(O)CO)N(CCO)c1c(I)c(CO)c(I)c(N(CCO)C(=O)C(O)CO)c1I (stereo not drawn) [Example 14, N,N′-Bis(2,3-dihydroxypropionyl)-N,N-bis(2-hydroxyethyl)-3,5-diamino-2,4,6-triiodobenzylalcohol] | 15.8 mPas | – | Viscosity 20° C. (concentration 373 mgI/ml): 12.0 mPas; Viscosity (iodine concentration 373 mgI/mL): 12 mPas
O=C(c1c(I)c(CO)c(I)c(N(CCO)C(=O)CO)c1I)N(CC(O)CO)CC(O)CO (stereo not drawn) [Example 68, 5-[N′-(2-Hydroxyethyl)-hydroxyacetamido]-3-hydroxymethyl-N,N-bis-(2,3-dihydroxypropyl)-2,4,6-tiiodobenzamide] | 19.1 mPas | – | Viscosity 20° C. (concentration 450 mgI/ml): 31 mPas
O=C(NCCO)c1c(I)c(CO)c(I)c(N(CC(O)CO)C(=O)C(O)CO)c1I (stereo not drawn) [Example 66, 5-[N′-(2,3-Dihydroxypropyl)-2,3-dihydroxypropionylamino]-3-hydroxymethyl-N-(2-hydroxyethyl)-2,4,6-triiodobenzamide] | 15.2 mPas | 9.3 mPas | Viscosity 20° C. (concentration 401 mgI/ml): 15 mPas
O=C(c1c(I)c(CO)c(I)c(N(CCO)C(=O)CO)c1I)N(CCO)CCO [Example 41, 5-[N′-(2-Hydroxyethyl)-hydroxyacetamido]-3-hydroxymethyl-N,N-bis(2-hydroxyethyl)-2,4,6-triiodobenzamide] | 12.0 mPas | – | Viscosity 20° C. (concentration 508 mgI/ml): 40 mPas
O=C(C(O)CO)N(CCO)c1c(I)c(CCO)c(I)c(N(CCO)C(=O)C(O)CO)c1I (stereo not drawn) [Example 62, 3,5-Bis[N-(2-hydroxyethyl)-2,3-dihydroxypropionylamino]-2,4,6-triiodo-(2-hydroxyethyl)benzene] | 14.3 mPas | – | Viscosity 20° C. (concentration 353 mgI/ml): 9 mPas
O=C(NC(CO)(CO)CO)c1c(I)c(CO)c(I)c(N(CCO)C(=O)CO)c1I [Example 55, 5-[N′-(2-Hydroxyethyl)-hydroxyacetamido]-3-hydroxymethyl-N-[tris-(hydroxymethyl)-methyl]-2,4,6-triiodobenzamide] | 19.4 mPas | – | Viscosity 20° C. (concentration 429 mgI/ml): 28 mPas
O=C(CO)N(CCO)c1c(I)c(CC(O)CO)c(I)c(N(CCO)C(=O)CO)c1I (stereo not drawn) [Example 73, 3,5-Bis-[N,N′-(2-hydroxyethyl)-hydroxyacetamido]-2,4,6-triiodo-(2,3-dihydroxypropyl)benzene] | 10.4 mPas | 6.7 mPas | Viscosity 20° C. (concentration 396 mgI/ml): 10 mPas
CN(CC(O)CO)C(=O)c1c(I)c(CO)c(I)c(N(CCO)C(=O)CO)c1I (stereo not drawn) [Example 45, 5-[N′-(2-Hydroxyethyl)-hydroxyacetamido]-3-hydroxymethyl-N-methyl-N-(2,3-dihydroxypropyl)-2,4,6-triiodobenzamide] | 13.9 mPas | – | Viscosity 20° C. (concentration 483 mgI/ml): 32 mPas
CN(CC(O)CO)C(=O)c1c(I)c(CO)c(I)c(N(CCO)C(=O)C(O)CO)c1I (stereo not drawn) [Example 47, 5-[N′-(2-Hydroxyethyl)-2,3-dihydroxypropionylamino]-3-hydroxymethyl-N-methyl-N-(2,3-dihydroxypropyl)-2,4,6-triiodobenzamide] | 16.4 mPas | – | Viscosity 20° C. (concentration 447 mgI/ml): 28 mPas
O=C(c1c(I)c(CO)c(I)c(N(CCO)C(=O)C(O)CO)c1I)N(CCO)CCO (stereo not drawn) [Example 43, 5-[N′-(2-Hydroxyethyl)-2,3-dihydroxypropionylamino]-3-hydroxy-methyl-N,N-bis (2-hydroxyethyl)-2,4,6-triiodobenzamide] | 14.2 mPas | – | Viscosity 20° C. (concentration 488 mgI/ml): 42 mPas
